For one experiment, the target named is T1, prolyl endopeptidase (Sus scrofa, UniProt P23687).
T1 construct: swine kidney-derived prolyl endopeptidase; from tissue; host or cells: swine kidney
Description: Enzyme inhibitory action on swine kidney-derived prolyl endopeptidase (Z-Gly-Pro-β-naphthylamide substrate). The format is biochemical. The settings on record: swine kidney prolyl endopeptidase, 0.1 mM substrate, 37° C., 30 minutes, pH 7.5. Here is the method: (§1) Using 0.1 mM of benzyolxycarbonylglycylproline-β-naphthylamide as substrate and swine kidney-derived prolyl endopeptidase as enzyme, the enzyme was acted on the substrate at 37° C. for 30 minutes in 0.025 M Tris(hydroxymethyl)methane amine-hydrochloric acid (pH 7.5) solution. Fast Garnet was added to form a color and absorbance was measured at 525 nm. The inhibitory activity is expressed in terms of concentration required for 50% inhibition (IC50).

The subject of experiment [1] is prolyl endopeptidase in mouse brain. Briefly: Prolyl endopeptidase inhibition activity in mouse brain after intravenous administration. The format is in vivo, mouse (male ddy strain). The settings on record: 30 mg/kg i.v., 30 minutes after administration, control = 100. Here is the method: as §1
Each of the compounds of the present invention was dissolved in physiological saline or physiological saline added with a surfactant. The solution was intravenously administered to male ddy strain mice (3 in one group) at a dose of 30 mg/kg. For control, physiological saline or a surfactant alone was intravenously given to 3 mice in a similar manner.
Thirty minutes after administration, the animal was bled to death and the whole brain was excised out. Each brain was homogenized with 20-fold volume of 0.1M phosphate buffer containing 2 mM DTT and the homogenate was centrifuged at 3000 g for 20 minutes. The prolyl endopeptidase in the resulting supernatant was determined as in Experiment 1, as β-naphthylamine isolated. When the mean enzyme activity in the mouse brain for control is made 100 (β-naphthylamine value: 3.88±0.26), the residual enzyme activity was determined when the compounds of the present invention was administered.

As usually defined, the IC50 is the concentration that inhibits the measured activity by half.

T1 sequence (P23687 whole entry): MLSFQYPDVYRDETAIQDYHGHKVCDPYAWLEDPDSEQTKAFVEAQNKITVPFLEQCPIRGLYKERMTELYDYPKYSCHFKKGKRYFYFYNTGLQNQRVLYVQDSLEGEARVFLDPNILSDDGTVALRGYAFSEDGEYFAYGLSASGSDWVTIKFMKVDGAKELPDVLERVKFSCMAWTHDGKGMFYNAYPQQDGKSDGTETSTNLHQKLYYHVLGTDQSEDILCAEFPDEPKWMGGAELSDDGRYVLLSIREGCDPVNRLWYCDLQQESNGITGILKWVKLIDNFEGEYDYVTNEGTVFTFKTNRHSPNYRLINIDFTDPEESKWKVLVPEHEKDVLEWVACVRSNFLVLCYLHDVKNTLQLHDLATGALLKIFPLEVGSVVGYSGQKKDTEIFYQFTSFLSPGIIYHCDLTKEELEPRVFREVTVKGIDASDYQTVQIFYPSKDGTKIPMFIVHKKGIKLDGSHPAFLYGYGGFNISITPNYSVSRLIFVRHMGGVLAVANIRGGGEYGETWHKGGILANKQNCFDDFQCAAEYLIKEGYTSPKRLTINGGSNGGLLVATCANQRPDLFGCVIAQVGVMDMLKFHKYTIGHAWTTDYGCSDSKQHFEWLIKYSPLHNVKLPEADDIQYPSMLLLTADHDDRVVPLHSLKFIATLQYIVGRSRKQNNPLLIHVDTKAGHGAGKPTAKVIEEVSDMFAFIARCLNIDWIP

`O=C(NC1CCCCC1)C(=O)C1CCCN1C(=O)C(Cc1ccccc1)NC(=O)c1ccccn1` (centres unmarked) [Example 26, N-Cyclohexyl-2-oxo-2-[2-(1-(N-(2-pyridylcarbonyl)phenylalanyl)pyrrolidinyl)]acetamide] had an IC50 against prolyl endopeptidase of 1.78 nM. The “Residual Enzyme Activity (%)” value in experiment [1] is recorded as 5.7%.
Consider `O=C(NC1CCCCC1)C(=O)C1CCCN1C(=O)c1ccc2ccccc2c1` (centres unmarked) [Example 64, N-Cyclohexyl-2-oxo-2-[2-(1-(2-naphthoyl)pyrrolidinyl)]acetamide], for which half-maximal inhibition at prolyl endopeptidase (IC50) required 21.7 nM. Moreover, the “Residual Enzyme Activity (%)” value in experiment [1] is reported as 50.5%.
In turn, `O=C(NC1CCCCC1)C(=O)C1CCCN1C(=O)c1ccc(CN2CCOCC2)cc1` (centres unmarked) [Example 84, N-Cyclohexyl-2-oxo-2-[2-(1-(4-morpholinomethylbenzoyl)pyrrolidinyl)]acetamide] gave an IC50 on prolyl endopeptidase of 72.5 nM. Besides, the “Residual Enzyme Activity (%)” value in experiment [1] is reported as 50.3%.
On prolyl endopeptidase, `O=C(NC1CCCCC1)C(=O)C1CCCN1C(=O)C(Cc1ccccc1)NC(=O)c1ccc2ccccc2n1` (centres unmarked) [Example 115, N-Cyclohexyl-2-oxo-2-[2-(1-(N-(2-quinolylcarbonyl)phenylalanyl)pyrrolidinyl)]acetamide] had an IC50 of 2.09 nM.
Same read-out and setting: for `CC(=O)NC(Cc1ccccc1)C(=O)N1CCCC1C(=O)C(=O)NC1CCCCC1` (centres unmarked) [Example 118, N-Cyclohexyl-2-oxo-2-[2-(1-(N-acetylphenylalanyl)pyrrolidinyl)]acetamide] the value was 2.03 nM; for `O=C(NC1CCCCC1)C(=O)C1CCCN1C(=O)C(CC1CCCCC1)NC(=O)c1ccc2ccccc2n1` (stereo not drawn) [Example 124, N-Cyclohexyl-2-oxo-2-[2-(1-(N-(2-quinolylcarbonyl)-β-cyclohexylalanyl)pyrrolidinyl)]acetamide], 3.75 nM; for `CC(C)(C)OC(=O)N1c2ccccc2CC1C(=O)N1CCCC1C(=O)C(=O)NC1CCCCC1` (centres unmarked) [Example 126, N-Cyclohexyl-2-oxo-2-[2-(1-(1-t-butoxycarbonyl-2,3-dihydroindole-2-carbonyl)pyrrolidinyl)]acetamide], 1.7 nM.
At prolyl endopeptidase, `O=C[C@@H]1CCCN1C(=O)[C@H](Cc1ccccc1)NC(=O)c1cccc(Oc2ccccc2)c1` [Reference Example 4, N-(N-(3-Phenoxybenzoyl)-L-phenylalanyl)-L-prolinal, reference compound] had an IC50 of 249 nM. This IC50 is about 150-fold higher than that of the compound before.

(Values after patent US5756763A, “Pyrrolidine derivatives” (Zaidan Hojin Biseibutsu Kagaku Kenkyukai, priority 1993, dated 1998).)
